Experimental findings from PubChem BioAssay (NCI) are described below.

What all share (experiment): NCI-60 cell line screen, 48 h
Assay [1] has as its system COLO 205 colon.
Assay [2] concerns HCT-15 colon.
Assay [3] concerns MCF7 breast.
For assay [4], the system named is NCI/ADR-RES ovarian.
The test system of assay [5] is T-47D breast.

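1) Cells in 96-well plates. 2) Compound, 48 h, 5 concentrations. 3) Linear interpolation between surrounding doses. 4) Unreached endpoint = highest concentration. At the TGI there is no net growth.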 Where a SMILES comes first, the peptide text is derived from it. [ ]: non-standard residue; d: D form. The star is where a group is joined. Bn2Val = CC(C)[C@@H](C(=O)*)N(Cc1ccccc1)Cc1ccccc1; NH(3,4-diMeO-benzyl) = COc1ccc(CN*)cc1OC; NMeV = CN[C@H](C(=O)O)C(C)C

For the molecule `COC(=O)c1ccc(NCC2=CC(=O)C=CC2=O)cc1`, the TGI in assay [1] came to 8.67 µM; in assay [2], 25.9 µM; in assay [3] it was 30.8 µM; in assay [4], 35.5 µM.
The like results for `CC[C@H]1C=CCC[C@@]2(C[C@@H]3CC[C@H]4[C@H](C(=O)OCCCCCCCCCCCCCCCC(=O)N(CCCN)C[C@@H](O)CCN)[C@]5(CCC[C@@H](C)O5)NC(=[N+]34)N2)O1` were, in that order, 1.3 µM, 2.18 µM, 1.51 µM and 4.81 µM.
The like results for `Cn1c(=O)cc(N2CCCC2)[nH]c1=O` were, in that order, above 100 µM, above 100 µM, above 100 µM and above 100 µM.
As to `CCOC(=O)c1cc2cc(C)cc(C(=O)c3ccc([N+](=O)[O-])cc3)c2[nH]1`, the TGI in assay [1], in assay [2], in assay [3] and in assay [5] was above 100 µM each time.
For `Fc1ccc2c3c([nH]c2c1)CCNC3`, the TGI in assay [1], in assay [2], in assay [3], in assay [4] and in assay [5] was above 100 µM throughout.
Turning to `O=C(O)C1=NN(c2ccc(S(=O)(=O)O)cc2)C2(C1)SCC(=O)N2c1nc2ccccc2s1` (stereo not drawn), the TGI in assay [1], in assay [2], in assay [3], in assay [4] and in assay [5] was above 100 µM in each case.
On to `O=c1[nH]c2cc([N+](=O)[O-])ccc2nc1/C=C(\O)c1ccc(Cl)cc1`, for which the TGI stood at 78.5 µM in assay [1]; 28.4 µM in assay [2]; 26.2 µM in assay [3]; 28.4 µM in assay [4]; 30.8 µM in assay [5].
Consider `CCOP(=O)(OCC)C(F)(F)Cc1cnc(C)c2c1COC(C)(C)O2`, for which the TGI in assay [1], in assay [2], in assay [3], in assay [4] and in assay [5] was above 10 µM throughout.
Take `COC(=O)[C@@H]1OC(C)(c2ccccc2)O[C@H]1C(=O)OC`: the TGI in assay [1], in assay [2], in assay [3], in assay [4] and in assay [5] was above 100 µM each time.
For `CC12C(=O)OC(=O)C1(C)C1C=CC2O1` (stereo not drawn), the TGI in assay [1], in assay [2], in assay [3] and in assay [4] was above 100 µM each time.
Take `OC(CC(O)(C(F)(F)F)C(F)(F)F)C(O)c1ccco1` (stereo not drawn): the TGI in assay [1], in assay [2], in assay [3], in assay [4] and in assay [5] was above 10 µM throughout.
Regarding `O=C(c1cccs1)N(Cc1cccnc1)C(=S)N(Cc1cccnc1)C(=O)c1cccs1`, the TGI in assay [1], in assay [2], in assay [3], in assay [4] and in assay [5] was above 100 µM in each case.
`CCN(CC)C(=S)SS(=O)(=O)c1ccc(NC(C)=O)cc1`: the TGI in assay [1] was above 72.1 µM; in assay [2], above 100 µM; in assay [4], 95.4 µM; in assay [5], above 100 µM.
Regarding `O=C(CC(=O)N1N=C(N(c2ccccc2)c2ccccc2)CC1c1ccccc1)Nc1ccccc1` (stereo not drawn), the TGI in assay [1], in assay [2], in assay [3], in assay [4] and in assay [5] was above 100 µM throughout.
`CCOC(=O)c1ccc(Nc2nc3cc(C(F)(F)F)ccc3nc2C(=O)OCC)cc1`: the TGI in assay [1], in assay [2], in assay [3], in assay [4] and in assay [5] was above 100 µM each time.
Regarding `Cc1nnc2n1N=C(c1cc(F)c(Cl)cc1Cl)/C(=C/c1ccc3c(c1)OCO3)S2`, the TGI in assay [1], in assay [2], in assay [3], in assay [4] and in assay [5] was above 100 µM throughout.
As to `O=S(=O)(O)C(Cc1nc2ccccc2[nH]1)S(=O)(=O)OCCC1S(=O)(=O)OCCOS1(=O)=O` (stereo not drawn), the TGI in assay [1], in assay [2], in assay [3], in assay [4] and in assay [5] was above 100 µM each time.
For the molecule `O=C(c1ccccc1)C1C[C@H]2CO[C@H](c3ccccc3)N2C1=O` (stereo partly drawn), the TGI in assay [1], in assay [2], in assay [3], in assay [4] and in assay [5] was above 100 µM in each case.
For `COc1ccc(N=CN(C)C)c(C)c1`, the TGI was 28 µM in assay [1]; above 100 µM in assay [2]; 44.3 µM in assay [3]; above 100 µM in assay [4]; 68.4 µM in assay [5].
Consider `CN(C)Cc1cc(/C=C/C(=O)c2ccc(Cl)c(Cl)c2)cc(CN(C)C)c1O`, for which the TGI was found to be 32.5 µM in assay [1], 31.7 µM in assay [3], 50.6 µM in assay [4] and 24.1 µM in assay [5].
For `Cc1ccc(C2SCC(=O)N2NC(=O)c2ccncc2)s1` (stereo not drawn), the TGI in assay [1], in assay [2], in assay [3], in assay [4] and in assay [5] was above 100 µM each time.
Consider `O=C(Nc1ccc(Cl)cc1)NS(=O)(=O)c1c(-c2ccccc2)oc2ccccc2c1=O`, for which the TGI in assay [1], in assay [2], in assay [4] and in assay [5] was above 100 µM in each case.
In the case of `CCOC(=O)c1ccc(N=c2oc3ccc(OC)cc3cc2-c2nc3ccccc3[nH]2)cc1`, the TGI in assay [1], in assay [2], in assay [3], in assay [4] and in assay [5] was above 100 µM in each case.
Regarding `CC1=C2CN(C(=O)OCC(C)C)CCC2C2=C(C(=O)c3ccccc3C2=O)C1C` (stereo not drawn), the TGI in assay [1], in assay [2], in assay [3] and in assay [5] was above 10 µM throughout.
For `O=C1OC(CS(=O)(=O)c2ccccc2)CC1O` (stereo not drawn), the TGI in assay [1], in assay [2], in assay [3] and in assay [4] was above 100 µM in each case.
Take `CCOC(=O)c1cc(Br)c(-c2onc(C)c2Br)n1C`: the TGI was 85.7 µM in assay [1]; above 100 µM in assay [2]; 77.5 µM in assay [3]; above 100 µM in assay [4]; 57.7 µM in assay [5].
For the molecule `COc1cccc(Nc2nc(N)nc(N)c2N=O)c1`, the TGI in assay [1] is 51.9 µM; in assay [2], 47 µM; in assay [3], above 100 µM; in assay [4], 52.5 µM; in assay [5] it was 24.3 µM.
On to `O=c1c(=[n+]2ccc(=C([O-])c3ccccc3)cc2)/c(=N/S(=O)(=O)c2ccccc2)c(=O)c2ccccc12`, for which the TGI turned out to be 27.2 µM in assay [1]; 28.2 µM in assay [2]; 25.7 µM in assay [3]; 24.3 µM in assay [4]; 12.9 µM in assay [5].
As to `C#CCCOC(=O)c1ccccc1OC(C)=O`, the TGI in assay [1], in assay [2], in assay [3], in assay [4] and in assay [5] was above 100 µM in each case.
In the case of `N#CCc1nc(-c2cc3c(ccc4ccccc43)oc2=O)cs1`, the TGI was above 100 µM in assay [1]; above 100 µM in assay [2]; above 100 µM in assay [3]; 70.2 µM in assay [4]; above 100 µM in assay [5].
Take `NC(=O)OCc1c(-c2ccccc2)nn(-c2ccccc2)c1COC(N)=O`: the TGI in assay [1], in assay [2], in assay [3], in assay [4] and in assay [5] was above 100 µM in each case.
Consider `CC1c2cc(c3c(c2O)CN([C@@H](C)C2CCCCC2)CO3)C(C)c2cc(c3c(c2O)CN([C@@H](C)C2CCCCC2)CO3)C(C)c2cc(c3c(c2O)CN([C@@H](C)C2CCCCC2)CO3)C(C)c2cc1c1c(c2O)CN([C@@H](C)C2CCCCC2)CO1` (stereo partly drawn), for which the TGI turned out to be 2.65 µM in assay [1], 2.92 µM in assay [2], 2.67 µM in assay [4] and 3.23 µM in assay [5].
Turning to `COC(=O)C1(C(=O)OC)CC2=C(S(=O)(=O)c3ccccc3)C[C@H](C#N)[C@H]2C1`, the TGI in assay [1], in assay [2], in assay [3], in assay [4] and in assay [5] was above 100 µM each time.
As for `COc1ccc(C(c2ccc3c(c2)OCO3)N2C(=O)CCC2C(=O)O)cc1` (stereo not drawn), the TGI in assay [1], in assay [2], in assay [3], in assay [4] and in assay [5] was above 100 µM each time.
As to `CC1C(O)Oc2cc3c(cc2C1c1ccccc1O)OCO3` (stereo not drawn), the TGI was 31 µM in assay [1], above 100 µM in assay [2], above 100 µM in assay [3] and above 100 µM in assay [5].
With `CC(C)NC(=O)OCc1c(COC(=O)NC(C)C)c(-c2ccc[n+](COC(=O)C(C)(C)C)c2)n2c1CCC2`, the TGI in assay [1], in assay [2], in assay [3], in assay [4] and in assay [5] was above 100 µM in each case.
On to `c1cc(C[S+]2CCCC2)sc1C[S+]1CCCC1`, for which the TGI in assay [1], in assay [2], in assay [3], in assay [4] and in assay [5] was above 100 µM in each case.
Take `CCc1ccccc1NC(=O)C(=O)CC(=O)c1sc(Nc2ccccc2Cl)nc1C`: the TGI is 52.3 µM in assay [1]; 92 µM in assay [2]; 45.9 µM in assay [3]; above 100 µM in assay [4]; above 100 µM in assay [5].
For the molecule `Cn1c(=O)n2n(c1=O)[C@@H](c1ccccc1)[C@H]2c1ccccc1`, the TGI in assay [1], in assay [2], in assay [3] and in assay [4] was above 100 µM each time.
In the case of `O=[N+]([O-])c1ccc(C(=Nc2ccccc2)SSC(=Nc2ccccc2)c2ccc([N+](=O)[O-])o2)o1`, the TGI in assay [1] was found to be 2.44 µM; in assay [2] it was 2.2 µM; in assay [4] it was 7.43 µM; in assay [5] it was 5.79 µM.
For `COc1ccc(CNC(=O)[C@@H]2CCCN2C(=O)[C@@H]2CCCN2C(=O)[C@H](C(C)C)N(C)C(=O)[C@@H](NC(=O)[C@H](C(C)C)N(Cc2ccccc2)Cc2ccccc2)C(C)C)cc1OC` (Bn2Val-V[NMeV]PP-{NH(3,4-diMeO-benzyl)}), in that order: 38.7 µM, 31.4 µM, 48.2 µM and 48.3 µM.
Consider `O=C1C=C2CC[C@H]3[C@@H]4CC[C@H](OC(=O)c5cccc6cc7ccccc7nc56)[C@H]4CC[C@@H]3[C@H]2CC1`, for which the TGI in assay [1], in assay [2], in assay [3] and in assay [4] was above 100 µM each time.
Regarding `CC1(O)Oc2ccc3ccccc3c2C=C1C(N)=O` (stereo not drawn), the TGI in assay [1], in assay [2], in assay [3] and in assay [5] was above 100 µM in each case.
In the case of `O=c1cc(-c2cccc(OCc3ccccc3)c2)[nH]c2cc3c(cc12)OCO3`, the TGI in assay [1] is above 22.7 µM; in assay [3], above 100 µM; in assay [4], 0.462 µM; in assay [5], above 100 µM.
With `CCOC(=O)c1cc(C#N)[nH]c1-c1ccsc1`, the TGI is above 100 µM in assay [1], above 100 µM in assay [2], above 100 µM in assay [3] and 94.9 µM in assay [4].
Take `Cc1ccc(S(=O)(=O)Nn2c(O)c(C#N)c(-c3ccc(N(C)C)cc3)c(C#N)c2=O)cc1`: the TGI in assay [1], in assay [2], in assay [3] and in assay [4] was above 50 µM throughout.
For the molecule `CN(C)c1nc(=NCc2cccnc2)ss1`, the TGI in assay [1], in assay [2] and in assay [5] was above 10 µM in each case.
